{"source": "paper PMC4741889", "about": "“Ligand-based chemoinformatic discovery of a novel small molecule inhibitor targeting CDC25 dual specificity phosphatases and displaying in vitro efficacy against melanoma cells” (Oncotarget, 2015)", "type_in_all_cases": "cell-based, human", "key": {"A2058 cells [1]": {"system": "A2058 cells", "assay": "MTT cell growth rate, A2058 melanoma cells", "details": "for cell growth rate: A2058, 100 μM", "protocol": "The human melanoma cell line A2058, kindly provided by CEINGE (Naples, Italy), and SAN cells were derived from lymph nodal metastases and grown in DMEM and RPMI 1640, respectively, supplemented with 10% FBS, 2 mM L-glutamine, 100 IU/mL penicillin G, and 100 μg/mL streptomycin in humidified incubator at 37°C under 5% CO2 atmosphere. All cells were split and seeded every three days and used during the exponential phase of growth. Cell treatments were always carried after 24 h from plating.\nThe MTT assay was used to detect cell proliferation essentially as previously described. Briefly, A2058 and SAN cells were plated in 96-well microtiter plates (100 μL/well) at 4000 and 6000 cells/well, respectively. After 24-h seeding, cells were treated with the selected compounds added at 25, 50 or 100 μM concentration, or with 0.5% (v/v) DMSO as a vehicle control. After 24-h, 48-h or 72-h treatment, and upon the addition of 10 μL of MTT solution in the dark, the plate was incubated for 3 h at 37°C under CO2 atmosphere. After medium aspiration and solubilization of formazan crystals, absorbance was measured at 570 nm, using an ELISA plate reader (Bio-Rad, Milano, Italy)."}, "A2058 cells [2]": {"system": "A2058 cells", "assay": "Mitochondrial membrane potential (R123), A2058 cells", "details": "A2058, 100 μM, 24 h up to 72 h", "protocol": "(§1) Mitochondria represent the primary source of ROS, as well the target of ROS action, and therefore, compound 7 could affect their functionality in melanoma cells. […] Proteins belonging to the B-cell lymphoma-2 (Bcl-2) family are involved in the modulation of the mitochondrial functionality. Therefore, we have evaluated the levels of the anti-apoptotic protein Bcl-2, as well as that of the pro-apoptotic Bcl-2-associated X protein (Bax), after incubation with 7 (Figure 10B). […] To further investigate the occurrence of a mitochondrial-mediated apoptosis induced by 7, the caspase-9 activity was assayed. […] The effect of compound 7 was investigated also in SAN cells and the overall results were similar to those observed in A2058 (Supplementary Figure S6).\nMitochondrial membrane potential was evaluated by measuring the incorporation of the fluorescent probe R123, essentially as previously described. Briefly, cells were seeded into 6-well-plates (3 × 10^5 cells/well) for 24 h at 37°C, and then incubated at 37°C for 1 h in the presence of 5 μM R123, washed twice with PBS, and placed in medium containing 100 μM compound 7 or 0.5% DMSO. […] The fluorescence of cell-associated R123 was detected in the above-mentioned fluorescence spectrophotometer, using excitation and emission wavelengths of 490 and 520 nm, respectively; both excitation and emission slits were set at 10 nm."}, "[3]": {"system": "Bcl-2 and Bax protein levels", "assay": "Western blotting of Bcl-2 and Bax protein levels in SAN cells", "details": "100 μM, 8 or 16 h", "protocol": "Mitochondria represent the primary source of ROS, as well the target of ROS action, and therefore, compound 7 could affect their functionality in melanoma cells. […] Proteins belonging to the B-cell lymphoma-2 (Bcl-2) family are involved in the modulation of the mitochondrial functionality. Therefore, we have evaluated the levels of the anti-apoptotic protein Bcl-2, as well as that of the pro-apoptotic Bcl-2-associated X protein (Bax), after incubation with 7 (Figure 10B). […] To further investigate the occurrence of a mitochondrial-mediated apoptosis induced by 7, the caspase-9 activity was assayed. […]\nA2058 cells were seeded into 6-well-plates (3 × 10^5 cells/plate) for 24 h at 37°C and then treated at different times with 100 μM compound 7 or 0.5% DMSO. […] The protein concentration was determined by the method of Bradford, using bovine serum albumin (BSA) as standard. […] Membranes were then analysed by an enhanced chemiluminescence reaction, using Super Signal West Pico kit (Pierce) according to manufacturer's instruction; signals were visualized by autoradiography.\nSupplementary Figure S6: Effect of compound 7 on some apoptotic mitochondrial markers in SAN cells. […] Total protein extracts from SAN cells, incubated with 0.5% DMSO or 100 μM compound 7 for 8 or 16 h,were analyzed by Western blotting. […]"}, "caspase-9 activity": {"system": "caspase-9 activity", "assay": "Caspase-9 enzymatic activity in A2058 cells", "details": "A2058, 100 μM, 24 h", "protocol": "as §1\nTo estimate caspase-3 and caspase-9 activity during the treatment with compound 7, the respective enzymatic activities were measured by using caspase-3 and -9 fluorimetric assay kits, according to the manufacturer's protocol, essentially as previously described. Briefly, cells were seeded into 75 cm^2 plates (2 × 10^6 cells/plate) for 24 h at 37°C and then treated with 100 μM 7 or 0.5% DMSO. […] Cell lysates were incubated with 50 μM DEVD-AFC or LEHD-AFC substrates at 37°C for 2 h, to detect caspase-3 or caspase-9 activity, respectively, using a Cary Eclipse fluorescence spectrophotometer (Varian). […]"}}, "data": [{"smiles": "O=C(O)C1CCCCC1c1c2ccc(=O)cc-2oc2cc(O)ccc12", "note": "(stereo not shown) [Compound 7, 2-(6-hydroxy-3-oxo-3H-xanthen-9-yl)cyclohexanecarboxylic acid]", "values": [{"measurement": "cell growth rate", "setting": "A2058 cells [1]; 48 h, MTT", "result": "significant reduction of the cell growth rate"}, {"measurement": "cell growth rate", "setting": "A2058 cells [1]; 72 h, MTT (data not shown)", "result": "significant reduction of cell growth rate"}, {"measurement": "minimum concentration of inhibitor that caused an evident cytotoxic activity", "setting": "A2058 cells [1]; A2058, 25, 50 or 100 μM tested, 48 h (Supplementary Figure S2)", "result": 100, "unit": "µM"}, {"measurement": "mitochondrial membrane potential (R123 fluorescence)", "setting": "A2058 cells [2]", "result": "reduction of the mitochondrial membrane potential"}, {"measurement": "Bcl-2/Bax ratio", "setting": "[3]", "result": "significantly decreased"}, {"measurement": "Bcl-2 and Bax protein levels", "setting": "[3]", "result": "both levels of Bcl-2 and Bax were reduced"}, {"measurement": "caspase-9 activity", "setting": "caspase-9 activity", "result": "clear increase of caspase-9 activity"}]}]}
